{"source": "paper PMC11794677", "about": "“Self‐Assembly of a Conjugate of Lipoic Acid With a Collagen‐Stimulating Pentapeptide Showing Cytocompatibility and Wound Healing Properties, and Chemical and Photolytic Disassembly” (Journal of Peptide Science, 2025)", "key": {"[1]": {"assay": "CAC assay with fluorescent probe thioflavin T (ThT)", "assay_type": "physicochemical", "details": "ThT fluorescence peak intensity (λem = 448 nm) vs concentration", "experimental": "Before considering biocompatibility and bioactivity of lipoyl‐KTTKS, we examined whether this lipopeptide has a critical aggregation concentration (CAC) above which it forms self‐assembled aggregate structures. Based on our previous work on KTTKS‐lipopeptides, β‐sheet formation of lipoyl‐KTTKS is likely to be favoured. Therefore a CAC assay using the fluorescent probe thioflavin T (ThT) which is sensitive to β‐sheet formation was performed. The ThT fluorescence peak intensity was monitored as a function of concentration, and the results are shown in Figure 1 and indicate a CAC value (0.5 ± 0.1) wt% from the intersection of the straight lines at low and high concentrations, or (0.67 ± 0.06) wt% as the midpoint of a fitted Boltzmann‐type sigmoidal function: I=A2+A1−A2/1+expc−c1/2/σ\nFIGURE 1 CAC assay plotting fluorescence intensity of ThT (λ em = 448 nm) as a function of concentration. […] The black lines provide a linear intercept estimate of CAC.\nHere, I is the fluorescence intensity (at λ em = 448 nm), A 1 and A 2 are constants, c is the lipopeptide concentration, c 1/2 is the mid‐point concentration, and σ is the width parameter."}, "[2]": {"assay": "Cryo-TEM of aggregation in solution", "assay_type": "physicochemical", "details": "3 wt% aqueous solution, above the CAC", "description": "Cryo‐TEM was used to probe potential aggregation in solution above the CAC (3 wt% aqueous solution). […] The presence of such structures was also confirmed by SAXS and SANS data (Figure 3), which reveal form factor features that can be fitted using a core‐shell cylinder form factor, consistent with extended fibril structures. The cylinder radius is 25 Å, which is approximately equal to the estimated length of the molecule considering the lipid chain plus a pentapeptide in a β‐sheet conformation. […] For the SAXS data, it was necessary to include a contribution in the fits from unaggregated peptide, which gives rise to scattering at high q, described using a generalized Gaussian coil form factor (generalized refers to allowing the Flory exponent for the coil to vary from the value ν = 0.5 for an unperturbed coil). SANS data for 3 wt% solutions of lipoyl‐KTTKS in D2O can be fitted to a core‐shell cylinder form factor, consistent with SAXS, with fit parameters listed in Table S1. It was not necessary to allow for unaggregated monomer in fitting the SANS data, which may be because of the higher background and/or altered scattering contrast compared with SAXS. The cylinder radius and shell thickness obtained from the fits to the SANS data are in excellent agreement with the parameters obtained from the SAXS fit.\nFIGURE 2 Cryo‐TEM image from a 3‐wt% aqueous solution of lipoyl‐KTTKS."}, "[3]": {"tested_on": "HDFa cells", "assay": "Scratch assay of in vitro wound healing", "assay_type": "cell-based, Human", "details": "0.0062 wt% in DMEM without serum", "experimental": "For the scratch assay, 5 × 10^4 cells into were seeded into 24‐well plates, and cells were allowed to reach confluence. After reaching 90% confluence, a scratch was made in the middle of the well using a 200‐μL pipette tip and cells were incubated at 37°C in an atmosphere 5% CO2. The media used was DMEM without serum for the controls or DMEM without serum + lipoyl‐KTTKS at different concentrations. Pictures were taken periodically using a standard inverted optical microscope with phase contrast filters to monitor cell migration and wound closure.\nAs a simple in vitro ‘wound healing’ model, scratch assays were performed by creating a scratch in a layer of cells. Images of the confluent cell layer are presented in SI Figure S5. The scratch assay is a simple and affordable procedure consisting of simulating the closure of a skin wound by scratching a monolayer of fibroblasts seeded at high confluence and monitoring how long it takes for the cells to migrate and recover the ‘wound’ [51, 52, 53]. As evident from the images in Figure S5, the recovery of cells incubated with 0.0062 wt% lipoyl‐KTTKS was enhanced, with complete closure of the scratch after 48 h."}, "[4]": {"tested_on": "RAW 264.7 cells", "assay": "Nitrite (inflammation) assay with Griess reagent", "assay_type": "cell-based", "details": "2 μg LPS, 24 h, different concentrations, absorbance 550 nm, ANOVA with Bonferroni correction", "experimental": "To detect nitrite, the Griess reagent assay was used, following protocols described previously. Amounts 5 × 10^3 RAW 264.7 cells were seeded in a 96‐well plate and incubated for 24 h inside the cell incubator. After 24 h, the cells were washed three times with PBS and incubated in 100 μL of DMEM + 2 μg of LPS (lipopolysaccharide) for 24 h. After incubation in the presence of LPS, 100 μL of Griess reagent solution was added to each well and incubated for 10 min at room temperature. The resulting absorbance was measured at 550 nm using an Infinite F50 microplate reader (TECAN, Switzerland).\nThe Griess reagent assay was used as an indirect measure of the production of nitrite ions, an important species related to inflammation, by monitoring the presence of nitrites in media via colorimetric (UV‐vis absorbance) measurements. The assay was performed by incubating the cells in DMEM containing 2 μg of LPS with different concentrations of lipoyl‐KTTKS. Controls containing only LPS and RAW cells incubated in DMEM without LPS were also prepared."}, "[5]": {"tested_on": "procollagen type I carboxy-terminal peptide (PIP)", "details": "cited from earlier work", "description": "Here, we investigate the structural properties, biocompatibility and collagen‐stimulating activity of a novel peptide amphiphile comprising a conjugate of lipoic acid to pentapeptide KTTKS, termed lipoyl‐KTTKS (Scheme 1). […] This can be contrasted with previous reported data f ..."}, "[6]": {"details": "cited from earlier work", "description": "(§1) Here, we investigate the structural properties, biocompatibility and collagen‐stimulating activity of a novel peptide amphiphile comprising a conjugate of lipoic acid to pentapeptide KTTKS, termed lipoyl‐KTTKS (Scheme 1)."}, "[7]": {"tested_on": "UV-induced collagenase (MMP-1)", "details": "cited from earlier work", "description": "as §1"}, "[8]": {"tested_on": "melanin synthesis", "details": "cited from earlier work", "description": "as §1"}, "[9]": {"tested_on": "tyrosinase", "details": "cited from earlier work", "description": "as §1"}}, "data": [{"substance": "lipoyl‐KTTKS [peptide amphiphile comprising a conjugate of lipoic acid to pentapeptide KTTKS]", "values": [{"measurement": "CAC (critical aggregation concentration) from intersection of straight lines", "setting": "[1]; intersection of straight lines at low and high concentrations", "value": "0.5 ± 0.1", "unit": "wt%"}, {"measurement": "CAC as midpoint of fitted Boltzmann-type sigmoidal function", "setting": "[1]; midpoint c1/2 of sigmoidal fit", "value": "0.67 ± 0.06", "unit": "wt%"}, {"measurement": "Aggregate structure seen by cryo-TEM", "setting": "[2]", "value": "short curly fibrils"}, {"measurement": "Time to first signs of recovery of the scratch", "setting": "[3]", "value": 12, "unit": "h"}, {"measurement": "Time to complete closure of the scratch", "setting": "[3]; control closed only after 72 h", "value": 48, "unit": "h"}, {"measurement": "Production of nitrites compared with cells incubated only in DMEM (without LPS)", "setting": "[4]; n = 3", "value": "statistically significant increase"}, {"measurement": "Production of nitrites compared with cells incubated only in DMEM (without LPS)", "setting": "[4]; n = 3, listed as lipoyl‐KTKKS", "value": "increase"}, {"measurement": "Increase in collagen synthesis compared with negative control", "setting": "[5]; 0.038 wt% (0.5 mM) sample, enzyme immunoassay of PIP, single data point", "value": 65, "unit": "%"}, {"measurement": "Collagen synthesis relative to control and KTTKS", "setting": "[5]", "value": "superior to control and KTTKS itself"}, {"measurement": "Cytocompatibility", "setting": "[6]", "value": "good cytocompatibility"}, {"measurement": "Effect on UV-induced collagenase (MMP-1) activity", "setting": "[7]", "value": "inhibits"}, {"measurement": "Effect on melanin synthesis", "setting": "[8]", "value": "inhibits"}, {"measurement": "Effect on tyrosinase activity", "setting": "[9]", "value": "inhibits"}]}]}
